According to US9682955B2, “Quinazoline derivatives useful as CB-1 inverse agonists” (Janssen Pharmaceutica NV, priority 2014, dated 2017):

How the values were obtained:
[1] = molecular target: Human CB1R (Cannabanoid receptor 1) (Homo sapiens (Human), UniProt P21554); assay: CB-1 in vitro cAMP assay (HTRF); format: cell-based; conditions: mean where tested more than once
Source text: (§1) CB1 and CB2 receptors are Gi-coupled GPCR. Activation of CB1 and CB2 receptors results in a decrease in cAMP production. An inverse agonist of the CB1 or CB2 receptor results in the opposite effect, an increase of cAMP production. The principle of this assay is based on HTRF® technology (Homogeneous Time-Resolved Fluorescence). The method is a competitive immunoassay between native cAMP produced by cells and the cAMP labeled with the fluorophore d2. The tracer binding is quantified by a Mab anti-cAMP labeled with Eu3+TBP-NHS Cryptate (supplied as part of the assay kit). The specific signal (i.e. energy transfer) is inversely proportional to the concentration of cAMP in the standard or sample.
(§2) Human CB1R (Cannabanoid receptor 1) was stably transfected in HEK-293 cells (DiscoveRx, cat: 93-0200C1). Human CB2R (Cannabanoid receptor 2) was stably transfected in HEK-293 cells (DiscoveRx, cat: 93-0201C1). Cell cultures were maintained in media: DMEM (Invitrogen Cat#12430-054) supplemented with 10% HI FBS (Invitrogen Cat#16140-071), 1% L-glutamine (Invitrogen Cat#25030-081), 0.2 mg/ml Hygromycin B (Invitrogen Cat#10687-010), 600 μg/mL G418 (Invitrogen Cat#10131-035), and 1× Penn/Strep (Invitrogen 15140-122). After cell expansion, aliquots were cryo-stored in media containing 5% DMSO (Pierce Cat#20684).
(§3) One day prior to experiments media was warmed to 37° C. and the cryo-stored cells were thawed in a 37° C. water bath. The cells were then added to media (10× volume) and the mixture was centrifugated at 1000 RPM for 5 min. The supernate was removed and the cells were re-suspended in media. A sample of the cell suspension was evaluated on a Cedex XS automated cell counter (Innovatis Systems) to determine viable cells/ml. Additional media was added to the cells to achieve a final cell density of 4E5 cells/mL. The cells were then plated into 384 well PDL white solid bottom plates (Greiner, Cat#781945) at 20 μL per well using a Multidrop (Thermo Scientific). Cells were removed from Row P (location of cAMP standards). Two columns of cells were plated into a clear bottom 384 well PDL coated plate (Greiner, Cat#781944) to view confluence the day of the assay. The cell plates were lidded and stored for 15 minutes in a hood, then transferred to an incubator (37° C., 5% CO2, 95% humidity) overnight.
(§4) DMSO was added to all wells of 384 well V bottom polystyrene plate (Greiner, Cat#781280) except to columns 1 and 13, rows O and P and wells M13-M23 and N13-N23. Test compounds (60 μL, 10 mM) were added to Column 1 and 13 (A1 through N1 and A13 through L13). Test compounds were serially diluted 1/3 by transferring and mixing 20 μl sample with 40 μL DMSO.
(§5) DMSO (40 μL) was added to wells of 384 well V bottom polystyrene plate: O2 through O11, M14 through M23, N14 through N23, and O14 through O23. AM630 (also known as [6-iodo-2-methyl-1-[2-(4-morpholinyl)ethyl]-1H-indol-3-yl](4-methoxyphenyl)-methanone, Cayman Chemical, Cat#10006974) (60 μL, 10 mM) was added to O1; and 1-(2,4-dichlorophenyl)-7-[(4-fluorophenyl)methylene]-4,5,6,7-tetrahydro-N-1-piperidinyl-1H-indazole-3-carboxamide (60 μL, 10 mM) was added to N13. The control was serially diluted 1/3 by transferring and mixing 20 μl sample with 40 μL DMSO. This process resulted 11 doses per control, 10 mM to […].
(§6) Cells plated the day prior to the assay in clear bottom plates were viewed on an inverse microscope to ensure confluency in the range of 60-75%. […]

[2] = molecular target: Human CB2R (Cannabanoid receptor 2) (Homo sapiens (Human), UniProt P34972); assay: CB-2 in vitro cAMP assay (HTRF); format: cell-based; conditions: mean where tested more than once
Sequence of Human CB2R (Cannabanoid receptor 2) (P34972 whole entry): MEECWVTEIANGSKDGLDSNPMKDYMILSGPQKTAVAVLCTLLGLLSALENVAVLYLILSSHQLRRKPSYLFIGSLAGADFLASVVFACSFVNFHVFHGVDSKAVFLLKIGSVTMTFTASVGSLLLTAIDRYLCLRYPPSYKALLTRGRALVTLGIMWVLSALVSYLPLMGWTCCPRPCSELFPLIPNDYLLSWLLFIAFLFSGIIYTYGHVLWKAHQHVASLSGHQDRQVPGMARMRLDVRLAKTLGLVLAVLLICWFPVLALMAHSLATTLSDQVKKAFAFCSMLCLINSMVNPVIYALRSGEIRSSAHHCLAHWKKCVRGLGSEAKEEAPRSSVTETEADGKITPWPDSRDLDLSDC
Source text: as §1, §2, §3, §4, §5, §6

Sequence of Human CB1R (Cannabanoid receptor 1) (P21554 whole entry): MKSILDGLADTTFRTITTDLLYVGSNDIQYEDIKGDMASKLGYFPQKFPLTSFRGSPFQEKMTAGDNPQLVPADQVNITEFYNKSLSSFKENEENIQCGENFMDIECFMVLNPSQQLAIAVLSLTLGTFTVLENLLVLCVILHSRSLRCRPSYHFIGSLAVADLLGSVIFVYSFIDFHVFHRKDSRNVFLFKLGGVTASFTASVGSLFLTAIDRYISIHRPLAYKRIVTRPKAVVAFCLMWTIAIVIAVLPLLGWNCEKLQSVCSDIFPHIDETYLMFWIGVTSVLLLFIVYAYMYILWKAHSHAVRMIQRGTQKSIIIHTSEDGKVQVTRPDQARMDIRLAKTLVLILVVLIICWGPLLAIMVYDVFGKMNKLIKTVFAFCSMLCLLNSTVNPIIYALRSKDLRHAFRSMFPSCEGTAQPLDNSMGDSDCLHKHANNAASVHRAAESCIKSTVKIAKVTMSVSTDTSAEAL

Compound	EC50 [1] [nM]	EC50 [2] [nM]
O=S(=O)(N1CCC(Nc2nc(C3CC3)nc3ccc(C(c4ccc(Cl)cc4)c4ccc(Cl)cc4)cc23)CC1)C(F)(F)F [Compound #108, 6-(bis(4-chlorophenyl)methyl)-2-cyclopropyl-N-(1-((trifluoromethyl)sulfonyl)piperidin-4-yl)quinazolin-4-amine]	8	> 10000
NCCOc1nc(NCc2ccc(C(F)(F)F)cc2)c2cc(C(c3ccc(Cl)cc3)c3ccc(Cl)cc3)ccc2n1 [Compound #72, 2-(2-aminoethoxy)-6-(bis(4-chlorophenyl)methyl)-N-(4-(trifluoromethyl)benzyl)quinazolin-4-amine]	51	> 10000
O=C(NCCCOc1ccc(CCl)cc1)c1ccc(S(=O)(=O)N2CCC(Nc3ncnc4ccc(C(c5ccc(Cl)cc5)c5ccc(Cl)cc5)cc34)CC2)cc1 [Compound #30, 4-((4-((6-(bis(4-chlorophenyl)methyl)quinazolin-4-yl)amino)piperidin-1-yl)sulfonyl)-N-(3-(4-(chloromethyl)phenoxy)propyl)benzamide]	446	> 10000
FC(F)(F)c1ccc(C2(Nc3ncnc4ccc(C(c5ccc(Cl)cc5)c5ccc(Cl)cc5)cc34)CC2)cc1 [compound 125, 6-(bis(4-chlorophenyl)methyl)-N-(1-(4-(trifluoromethyl)phenyl)cyclopropyl) quinazolin-4-amine]	44	5940
Clc1ccc(C(c2ccc(Cl)cc2)c2ccc3ncnc(NC4CCN(CCc5ccccc5)CC4)c3c2)cc1 [Compound #11, 6-(bis(4-chlorophenyl)methyl)-N-(1-phenethylpiperidin-4-yl)quinazolin-4-amine]	124	> 10000
O=C(O)c1ccc(C(c2ccc(Cl)cc2)c2ccc3ncnc(NC4CCN(S(=O)(=O)C(F)(F)F)CC4)c3c2)cc1 (stereo not shown) [Compound #16, 4-((4-chlorophenyl)(4-((1-((trifluoromethyl)sulfonyl)piperidin-4-yl)amino)quinazolin-6-yl)methyl)benzoic acid]	343	> 10000
N#CC1(c2ccccc2)CCC(Nc2ncnc3ccc(C(c4ccc(Cl)cc4)c4ccc(Cl)cc4)cc23)CC1 (stereo not shown) [Compound #118, 4-((6-(bis(4-chlorophenyl)methyl)quinazolin-4-yl)amino)-1-phenylcyclohexanecarbonitrile]	11	196
OCCOc1nc(NCc2cccc(C(F)(F)F)c2)c2cc(C(c3ccc(Cl)cc3)c3ccc(Cl)cc3)ccc2n1 [Compound #55, 2-((6-(bis(4-chlorophenyl)methyl)-4-((3-(trifluoromethyl)benzyl)amino)quinazolin-2-yl)oxy)ethanol]	13	4440
NC(=O)c1cccc(N2CCC(Nc3ncnc4ccc(C(c5ccc(Cl)cc5)c5ccc(Cl)cc5)cc34)CC2)c1 [compound 96, 3-(4-(6-(bis(4-chlorophenyl)methyl)quinazolin-4-ylamino)piperidin-1-yl)benzamide]	23	218
COc1cc(S(=O)(=O)N2CCC(Nc3ncnc4ccc(C(c5ccc(Cl)cc5)c5ccc(Cl)cc5)cc34)CC2)ccc1C(=O)O [Compound #22, 4-((4-((6-(bis(4-chlorophenyl)methyl)quinazolin-4-yl)amino)piperidin-1-yl)sulfonyl)-2-methoxybenzoic acid]	23	280
OCC(CO)COc1nc(NCc2cccc(C(F)(F)F)c2)c2cc(C(c3ccc(Cl)cc3)c3ccc(Cl)cc3)ccc2n1 [Compound #49, 2-(((6-(bis(4-chlorophenyl)methyl)-4-((3-(trifluoromethyl)benzyl)amino)quinazolin-2-yl)oxy)methyl)propane-1,3-diol]	4	1930
NC(=O)c1cccc(CN2CCC(Nc3ncnc4ccc(C(c5ccc(Cl)cc5)c5ccc(Cl)cc5)cc34)CC2)c1 [Compound #36, 3-((4-((6-(bis(4-chlorophenyl)methyl)quinazolin-4-yl)amino)piperidin-1-yl)methyl)benzamide]	14	3640
COC(=O)c1ccc(CN2CCC(Nc3ncnc4ccc(C(c5ccc(Cl)cc5)c5ccc(Cl)cc5)cc34)CC2)cc1 [Compound #43, Methyl 4-((4-((6-(bis(4-chlorophenyl)methyl)quinazolin-4-yl)amino)piperidin-1-yl)methyl)benzoate]	59	> 10000
O=S(=O)(N1CCCC1)N1CCC(Nc2ncnc3ccc(C(c4ccc(Cl)cc4)c4ccc(Cl)cc4)cc23)CC1 [Compound #120, 6-(bis(4-chlorophenyl)methyl)-N-(1-(pyrrolidin-1-ylsulfonyl)piperidin-4-yl)quinazolin-4-amine]	4	2150
O=S(=O)(c1ccccc1F)N1CCC(Nc2ncnc3ccc(C(c4ccc(Cl)cc4)c4ccc(Cl)cc4)cc23)CC1 [compound 124, 6-(bis(4-chlorophenyl)methyl)-N-(1-(2-fluorophenylsulfonyl)piperidin-4-yl)quinazolin-4-amine]	2	1930
FC(F)(F)c1cncc(CNc2ncnc3ccc(C(c4ccc(Cl)cc4)c4ccc(Cl)cc4)cc23)c1 [compound 126, 6-(bis(4-chlorophenyl)methyl)-N-((5-(trifluoromethyl)pyridin-3-yl)methyl)quinazolin-4-amine]	25	1180
COc1nc(NCc2ccc(C(F)(F)F)cc2)c2cc(C(c3ccc(Cl)cc3)c3ccc(Cl)cc3)ccc2n1 [Compound #85, 6-(bis(4-chlorophenyl)methyl)-2-methoxy-N-(4-(trifluoromethyl)benzyl)quinazolin-4-amine]	10	> 10000
COc1ccc(C(c2ccc(Cl)cc2)c2ccc3ncnc(NC4CCN(c5ccccc5)CC4)c3c2)cc1 (stereo not shown) [Compound #58, 6-((4-chlorophenyl)(4-methoxyphenyl)methyl)-N-(1-phenylpiperidin-4-yl)quinazolin-4-amine]	0.5	67
O=S(=O)(N1CCC(Nc2ncnc3ccc(C(c4ccc(Cl)cc4)c4nccs4)cc23)CC1)C(F)(F)F (stereo not shown) [Compound #146, 6-((4-chlorophenyl)(thiazol-2-yl)methyl)-N-(1-((trifluoromethyl)sulfonyl)piperidin-4-yl)quinazolin-4-amine]	8	978
O=C(O)c1ccc(CCN2CCC(Nc3ncnc4ccc(C(c5ccc(Cl)cc5)c5ccc(Cl)cc5)cc34)CC2)cc1 [Compound #10, 4-(2-(4-((6-(bis(4-chlorophenyl)methyl)quinazolin-4-yl)amino)piperidin-1-yl)ethyl)benzoic acid]	894	998
O=C(O)c1ccc(CN2CCC(Nc3ncnc4ccc(C(c5ccc(Cl)cc5)c5ccc(Cl)cc5)cc34)CC2)cc1 [compound 44, 4-((4-(6-(bis(4-chlorophenyl)methyl)quinazolin-4-ylamino)piperidin-1-yl)methyl)benzoic acid]	580	> 10000
O=C(NCCO)c1ccc(N2CCC(Nc3ncnc4ccc(C(c5ccc(Cl)cc5)c5ccc(Cl)cc5)cc34)CC2)cc1 [Compound #84, 4-(4-((6-(bis(4-chlorophenyl)methyl)quinazolin-4-yl)amino)piperidin-1-yl)-N-(2-hydroxyethyl)benzamide]	26	326
OCCCCOc1nc(NCc2cccc(C(F)(F)F)c2)c2cc(C(c3ccc(Cl)cc3)c3ccc(Cl)cc3)ccc2n1 [Compound #53, 4-((6-(bis(4-chlorophenyl)methyl)-4-((3-(trifluoromethyl)benzyl)amino)quinazolin-2-yl)oxy)butan-1-ol]	42	3700
